From PubChem BioAssay AID2179 (Vanderbilt High Throughput Screening Facility, 2009)
Activity calls are given as the source filed them. The rule behind the calls is not given here.

What follows are molecules tested against Metabotropic glutamate receptor 4 (Rattus norvegicus) (UniProt P31423) (assay: PubChem AID 2179). Conditions: HEK/GIRK rat mGluR4, thallium flux, glutamate CRC fold-shift.
Metabotropic glutamate receptor 4 (Rattus norvegicus), sequence (P31423 whole entry, looked up): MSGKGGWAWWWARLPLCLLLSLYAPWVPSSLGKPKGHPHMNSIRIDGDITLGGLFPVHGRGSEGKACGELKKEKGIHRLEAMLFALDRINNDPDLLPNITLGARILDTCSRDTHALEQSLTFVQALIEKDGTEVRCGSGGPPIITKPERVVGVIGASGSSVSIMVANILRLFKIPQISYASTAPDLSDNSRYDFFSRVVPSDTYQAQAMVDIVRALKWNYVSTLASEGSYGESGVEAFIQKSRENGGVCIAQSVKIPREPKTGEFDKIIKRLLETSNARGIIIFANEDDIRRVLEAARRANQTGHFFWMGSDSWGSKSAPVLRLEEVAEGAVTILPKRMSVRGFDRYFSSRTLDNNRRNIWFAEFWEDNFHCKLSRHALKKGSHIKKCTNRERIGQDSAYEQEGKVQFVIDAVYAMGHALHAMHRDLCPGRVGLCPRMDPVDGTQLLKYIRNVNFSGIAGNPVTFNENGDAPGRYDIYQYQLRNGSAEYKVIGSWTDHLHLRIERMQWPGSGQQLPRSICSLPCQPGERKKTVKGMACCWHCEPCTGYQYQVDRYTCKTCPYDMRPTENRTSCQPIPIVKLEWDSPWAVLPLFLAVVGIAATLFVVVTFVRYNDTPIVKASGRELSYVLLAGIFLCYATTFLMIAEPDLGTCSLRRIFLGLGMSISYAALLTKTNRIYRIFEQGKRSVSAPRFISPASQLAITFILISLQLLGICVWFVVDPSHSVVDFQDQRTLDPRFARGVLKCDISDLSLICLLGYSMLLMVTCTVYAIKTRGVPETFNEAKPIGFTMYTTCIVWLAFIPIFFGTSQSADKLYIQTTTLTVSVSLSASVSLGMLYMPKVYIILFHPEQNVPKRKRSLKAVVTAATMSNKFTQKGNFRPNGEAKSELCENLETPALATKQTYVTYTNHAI
For `O=C(Nc1ccc(Cl)c(C(F)(F)F)c1)c1ccccn1`, the glutamate EC50 in presence of 30 uM compound (lower = stronger potentiation) was 5820 nM (inactive). For `O=C(Nc1ccc(F)c(C(F)(F)F)c1)c1ccccn1`, the glutamate EC50 in presence of 30 uM compound (lower = stronger potentiation) was 4010 nM (inactive). `COc1cc(NC(=O)c2ccccn2)ccc1Cl` showed a glutamate EC50 in presence of 30 uM compound (lower = stronger potentiation) of 307 nM. With `O=C(Nc1cccc(Cl)c1)c1ccccn1` the glutamate EC50 in presence of 30 uM compound (lower = stronger potentiation) was 368 nM. `COc1cc(NC(=O)c2ccccn2)ccc1F` gave a glutamate EC50 in presence of 30 uM compound (lower = stronger potentiation) of 409 nM. `COc1cc(NC(=O)c2ccccn2)ccc1C` was tested, and the glutamate EC50 in presence of 30 uM compound (lower = stronger potentiation) was 330 nM. With `COc1ccc(NC(=O)c2ccccn2)cc1Cl` the glutamate EC50 in presence of 30 uM compound (lower = stronger potentiation) was 1180 nM.
